Reference: publication PMC3220813 (Cancer Chemotherapy and Pharmacology, 2011)
In brackets after ≈: the same amount, converted by molar mass. Where two headings read alike, the source gives them in different places. Marks after values point to notes of the source that are not given here.

Key:
[1] = cited from earlier work; for increase in drug exposure with a high-fat meal: CI-1040 at 800 and 1,600 mg
[2] = assay type: in vivo, human; conditions: for CL/F, geometric mean / Vd/F / AUC0–t, geometric mean / AUC, geometric mean / Cmax, geometric mean / t1/2, geometric mean / tmax, median: PP population; for time up to which measurable plasma concentrations were observed: both fed and fasted periods; for Vd/F: Vz/F, geometric mean
Safety and tolerability = assay type: in vivo, human
[3] = test system: advanced solid malignancies; assay: Objective tumor response by RECIST 1.0; assay type: in vivo, human; conditions: 28 evaluable patients, both cutaneous melanoma
[4] = Classification by permeability and solubility; conditions: tentative; class IV = low permeability and low solubility
purified MEK1 = conditions: cited from earlier work
[5] = test system: various other kinases, enzymes, receptors, ion channels, and transporters; conditions: cited from earlier work
[6] = ref data on file, cited from earlier work
Caco-2 cells = conditions: ref data on file; cited from earlier work
[7] = in vivo; cited from earlier work
[8] = cited from earlier work
[9] = AEs ≥10% of patients, safety population N = 30
[10] = reported in ≥2 patients, safety population, Total (N = 11)
[11] = Fasted, metabolite after 75 mg selumetinib
[12] = Fed, metabolite after 75 mg selumetinib

O=C(NOCC1CC1)c1ccc(F)c(F)c1Nc1ccc(I)cc1Cl [CI-1040]
increase in drug exposure with a high-fat meal [1]: 4.5 fold | MTD and recommended Phase II dose (RP2D) ([1]; administered with food): 800 mg BID

Cn1cnc2c(F)c(Nc3ccc(Br)cc3Cl)c(C(=O)NOCCO)cc21 [selumetinib]
delay of median tmax in the presence of food ([2]; 75 mg, fed minus fasted): approximately 2.5 h | CL/F, geometric mean ([2]; Fasted): 12.9 L/h | CL/F, geometric mean ([2]; Fed): 16.0 L/h | time up to which measurable plasma concentrations were observed [2]: up to 48 h | AUC(0-t) ([2]; human, plasma, oral, 75 mg): 5640 ng·h/mL | Vd/F ([2]; human, plasma, oral, 75 mg, Fasted): 175 L | Vd/F ([2]; human, plasma, oral, 75 mg, Fed): 199 L | tolerability / safety profile (Safety and tolerability; 75 mg, advanced cancer population): well tolerated | Abdominal pain, number (%) of patients (Safety and tolerability; [9]): 8 (26.7) Number (%) of patients | Anemia, number (%) of patients (Safety and tolerability; [9]): 7 (23.3) Number (%) of patients | Constipation, number (%) of patients (Safety and tolerability; [9]): 11 (36.7) Number (%) of patients | Diarrhea, number (%) of patients (Safety and tolerability; [9]): 14 (46.7) Number (%) of patients | Dizziness, number (%) of patients (Safety and tolerability; [9]): 8 (26.7) Number (%) of patients | Dyspnoea, number (%) of patients (Safety and tolerability; [9]): 10 (33.3) Number (%) of patients | Edema peripheral, number (%) of patients (Safety and tolerability; [9]): 7 (23.3) Number (%) of patients | Fatigue, number (%) of patients (Safety and tolerability; [9]): 13 (43.3) Number (%) of patients | Headache, number (%) of patients (Safety and tolerability; [9]): 7 (23.3) Number (%) of patients | Nausea, number (%) of patients (Safety and tolerability; [9]): 18 (60.0) Number (%) of patients | Rash, number (%) of patients (Safety and tolerability; [9]): 16 (53.3) Number (%) of patients | Vomiting, number (%) of patients (Safety and tolerability; [9]): 9 (30.0) Number (%) of patients | patients with one or more dose reductions (Safety and tolerability; extension part, 75 mg BD, largely due to AEs (n = 6)): 10 patients | patients who died whilst on study (Safety and tolerability; intestinal perforation due to disease progression): 3.3% | patients with grade 4 AEs (Safety and tolerability; not considered causally related to study treatment): 6.7% | patients reporting an AE of grade 3 or higher (Safety and tolerability; overall safety population, 30 patients): 60.0% | Abdominal pain, SAE of ≥CTC grade 3, number (%) of patients (Safety and tolerability; [10]): 2 (6.7) Number (%) of patients | Anemia, SAE of ≥CTC grade 3, number (%) of patients (Safety and tolerability; [10]): 2 (6.7) Number (%) of patients | Constipation, SAE of ≥CTC grade 3, number (%) of patients (Safety and tolerability; [10]): 2 (6.7) Number (%) of patients | Dyspnoea, SAE of ≥CTC grade 3, number (%) of patients (Safety and tolerability; [10]): 3 (10.0) Number (%) of patients | Vomiting, SAE of ≥CTC grade 3, number (%) of patients (Safety and tolerability; [10]): 2 (6.7) Number (%) of patients | partial responses [3]: 7.1% | class (permeability/solubility classification) [4]: tentative class IV | IC50 (purified MEK1; read-out: IC50 against purified MEK1): 14 nM | activity against various other kinases, enzymes, receptors, ion channels, and transporters [5]: did not show significant activity | solubility ([6]; pH1): 274 µg/mL (≈ 599 µM) | solubility ([6]; pH 7.4): 3.4 µg/mL (≈ 7.43 µM) | permeability across Caco-2 cells (Caco-2 cells): moderate permeability | route of excretion [7]: predominantly via the feces | total body clearance from plasma after an oral dose (CL/F) ([8]; across studied dose range): 12 to 23 L/h | volume of distribution at steady state (Vss/F) ([8]; across studied dose range): 87 to 126 L | terminal elimination half-life (t1/2) ([8]; single dose): 5 to 8 h

O=C(NOCCO)c1cc2nc[nH]c2c(F)c1Nc1ccc(Br)cc1Cl [N-desmethyl-selumetinib]
AUC0–t, geometric mean [2, 11]: 376.4 ng/h/mL | AUC, geometric mean [2, 11]: 418.4 ng·h/mL | Cmax, geometric mean [2, 11]: 73.9 ng/mL | t1/2, geometric mean [2, 11]: 7.7 h | tmax, median [2, 11]: 1.50^a h | AUC0–t, geometric mean [2, 12]: 282.4 ng/h/mL | AUC, geometric mean [2, 12]: 379.1 ng·h/mL | Cmax, geometric mean [2, 12]: 33.5 ng/mL | t1/2, geometric mean [2, 12]: 6.8 h | tmax, median [2, 12]: 4.0^a h | time up to which measurable plasma concentrations were observed [2]: up to 24 h | ratio of N-desmethyl-selumetinib to selumetinib (metabolite to parent) ([2]; fasted state): 0.07 | ratio of N-desmethyl-selumetinib to selumetinib (metabolite to parent) ([2]; fed state): 0.06 | delay of median tmax in the fed condition ([2]; metabolite after 75 mg selumetinib): approximately 3 h | greater potency for MEK1 inhibition than selumetinib (purified MEK1; in vitro): 3- to 5 fold | AUC relative to parent compound ([8]; plasma metabolite exposure): < 15% | Cmax relative to parent compound ([8]; plasma metabolite exposure): < 15%

Cn1cnc2c(F)c(Nc3ccc(Br)cc3Cl)c(C(N)=O)cc21 [selumetinib amide]
less active than selumetinib (purified MEK1): up to 50 fold

O=C(O)c1ccc(F)c(F)c1Nc1ccc(I)cc1Cl [PD-0184264]
increase in drug exposure with a high-fat meal [1]: 5 fold
